According to US10870647B2, “Imidazopyridine derivative, method for preparing same, and pharmaceutical composition containing same as active ingredient for preventing or treating cancer” (DAEGU-GYEONGBUK MEDICAL INNOVATION FOUNDATION, priority 2016, dated 2020):

Columns and labels:
Assay in all cases: Kinase selectivity, scanMAX Kinase assay panel (DiscoverX), % control at 1 uM
Type in all cases: binding
[1] = target: T1, scanMAX Kinase assay panel (Homo sapiens, UniProt Q16584); conditions: MLK3; 1 uM; read-out: Percent Control (%)
T1 construct: purchased DiscoverX
T1 sequence (Q16584 whole entry): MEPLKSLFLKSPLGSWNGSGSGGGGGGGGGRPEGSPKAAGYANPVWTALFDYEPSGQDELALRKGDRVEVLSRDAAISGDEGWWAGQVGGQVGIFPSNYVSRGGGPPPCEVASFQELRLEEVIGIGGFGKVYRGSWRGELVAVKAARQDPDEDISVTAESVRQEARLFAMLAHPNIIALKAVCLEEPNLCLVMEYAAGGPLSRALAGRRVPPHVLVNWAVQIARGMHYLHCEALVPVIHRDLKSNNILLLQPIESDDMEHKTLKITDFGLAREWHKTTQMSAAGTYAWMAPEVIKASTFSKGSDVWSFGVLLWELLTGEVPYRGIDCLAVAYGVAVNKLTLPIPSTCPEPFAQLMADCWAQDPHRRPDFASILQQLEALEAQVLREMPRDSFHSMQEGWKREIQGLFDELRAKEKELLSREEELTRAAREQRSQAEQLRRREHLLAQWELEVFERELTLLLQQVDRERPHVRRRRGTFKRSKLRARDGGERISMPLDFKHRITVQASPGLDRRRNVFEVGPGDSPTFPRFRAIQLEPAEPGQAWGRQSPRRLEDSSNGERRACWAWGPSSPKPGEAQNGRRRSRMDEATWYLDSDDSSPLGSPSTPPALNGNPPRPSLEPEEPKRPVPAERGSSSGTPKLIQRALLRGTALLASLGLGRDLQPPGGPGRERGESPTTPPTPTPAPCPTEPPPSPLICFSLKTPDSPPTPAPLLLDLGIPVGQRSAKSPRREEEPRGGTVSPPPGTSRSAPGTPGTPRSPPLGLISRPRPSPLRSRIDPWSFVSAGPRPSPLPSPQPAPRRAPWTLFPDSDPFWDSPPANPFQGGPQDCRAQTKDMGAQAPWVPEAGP
Outline: (§1)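 Read-out is percent of control, derived from the signal with compound relative to positive and negative controls: (compound − positive)/(negative − positive) × 100. Each enzyme received test drug at 1 uM in DMSO, and values under 35% count as active.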

[2] = target: T2, scanMAX Kinase assay panel (Homo sapiens, UniProt P00533, L858R); conditions: EGFR (L858R); 1 uM; read-out: Percent Control (%)
T2 construct: purchased DiscoverX
T2 sequence (P00533 25-1210 L858R): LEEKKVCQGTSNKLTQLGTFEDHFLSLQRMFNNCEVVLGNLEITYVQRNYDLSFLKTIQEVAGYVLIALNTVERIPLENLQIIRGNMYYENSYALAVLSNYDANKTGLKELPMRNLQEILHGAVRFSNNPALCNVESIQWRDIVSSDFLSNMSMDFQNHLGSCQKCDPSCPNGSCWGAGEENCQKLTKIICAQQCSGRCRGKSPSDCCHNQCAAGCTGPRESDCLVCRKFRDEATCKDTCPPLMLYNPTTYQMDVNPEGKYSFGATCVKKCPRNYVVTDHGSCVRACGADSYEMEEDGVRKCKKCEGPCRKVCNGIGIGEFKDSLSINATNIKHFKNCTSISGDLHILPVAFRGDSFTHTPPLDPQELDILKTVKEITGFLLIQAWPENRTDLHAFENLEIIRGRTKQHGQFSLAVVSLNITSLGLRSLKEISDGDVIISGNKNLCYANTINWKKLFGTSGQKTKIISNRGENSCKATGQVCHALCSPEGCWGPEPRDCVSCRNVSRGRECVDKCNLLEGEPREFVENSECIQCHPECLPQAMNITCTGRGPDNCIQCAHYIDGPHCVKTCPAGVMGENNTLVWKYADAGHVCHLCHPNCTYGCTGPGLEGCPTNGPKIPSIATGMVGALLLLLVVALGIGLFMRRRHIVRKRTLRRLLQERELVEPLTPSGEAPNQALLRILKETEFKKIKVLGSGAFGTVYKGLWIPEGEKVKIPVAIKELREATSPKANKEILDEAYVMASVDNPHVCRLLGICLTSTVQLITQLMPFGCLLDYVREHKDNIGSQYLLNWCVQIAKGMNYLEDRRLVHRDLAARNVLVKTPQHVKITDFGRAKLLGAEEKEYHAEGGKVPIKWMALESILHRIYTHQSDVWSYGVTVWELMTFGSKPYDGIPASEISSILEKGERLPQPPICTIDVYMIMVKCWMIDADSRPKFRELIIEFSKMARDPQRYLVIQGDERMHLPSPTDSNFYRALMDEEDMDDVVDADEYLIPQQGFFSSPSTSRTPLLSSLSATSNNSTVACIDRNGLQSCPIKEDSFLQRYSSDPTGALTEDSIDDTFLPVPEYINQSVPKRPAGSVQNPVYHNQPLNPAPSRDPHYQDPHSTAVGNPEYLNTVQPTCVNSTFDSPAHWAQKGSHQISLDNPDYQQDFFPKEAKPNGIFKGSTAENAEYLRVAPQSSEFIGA
Outline: as §1

[3] = target: T3, scanMAX Kinase assay panel (Homo sapiens, UniProt Q96RR4); conditions: CAMKK2; 1 uM; read-out: Percent Control (%)
T3 construct: purchased DiscoverX
T3 sequence (Q96RR4 whole entry): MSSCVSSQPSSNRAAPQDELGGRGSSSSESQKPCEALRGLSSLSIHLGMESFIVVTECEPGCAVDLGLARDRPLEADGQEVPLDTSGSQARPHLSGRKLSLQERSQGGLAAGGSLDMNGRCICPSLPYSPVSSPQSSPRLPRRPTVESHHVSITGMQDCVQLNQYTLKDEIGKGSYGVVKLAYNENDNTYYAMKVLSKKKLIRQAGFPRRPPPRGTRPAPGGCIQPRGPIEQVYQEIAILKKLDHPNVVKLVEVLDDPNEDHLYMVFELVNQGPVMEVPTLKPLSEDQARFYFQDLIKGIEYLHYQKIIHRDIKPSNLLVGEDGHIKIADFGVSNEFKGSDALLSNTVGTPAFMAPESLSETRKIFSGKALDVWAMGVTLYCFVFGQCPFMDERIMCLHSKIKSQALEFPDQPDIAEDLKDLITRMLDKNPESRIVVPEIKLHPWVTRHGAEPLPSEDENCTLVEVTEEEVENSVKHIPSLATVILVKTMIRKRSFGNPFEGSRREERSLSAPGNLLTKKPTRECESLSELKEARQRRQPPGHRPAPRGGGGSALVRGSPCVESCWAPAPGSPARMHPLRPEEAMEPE
Outline: as §1

[4] = target: T4, scanMAX Kinase assay panel (Homo sapiens, UniProt Q8N5S9); conditions: CAMKK1; 1 uM; read-out: Percent Control (%)
T4 construct: purchased DiscoverX
T4 sequence (Q8N5S9 whole entry): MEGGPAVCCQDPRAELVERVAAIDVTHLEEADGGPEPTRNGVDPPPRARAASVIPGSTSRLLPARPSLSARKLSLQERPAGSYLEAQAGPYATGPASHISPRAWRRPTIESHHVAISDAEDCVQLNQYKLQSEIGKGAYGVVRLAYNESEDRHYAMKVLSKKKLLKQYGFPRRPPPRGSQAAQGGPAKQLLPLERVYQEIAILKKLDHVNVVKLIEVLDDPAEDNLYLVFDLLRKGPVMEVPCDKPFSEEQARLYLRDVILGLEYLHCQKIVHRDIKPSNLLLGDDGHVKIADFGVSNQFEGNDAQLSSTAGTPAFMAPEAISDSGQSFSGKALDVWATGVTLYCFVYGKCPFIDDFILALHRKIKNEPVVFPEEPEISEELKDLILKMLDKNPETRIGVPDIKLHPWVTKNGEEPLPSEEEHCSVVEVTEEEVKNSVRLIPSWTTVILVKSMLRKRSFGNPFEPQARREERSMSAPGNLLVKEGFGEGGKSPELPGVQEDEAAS
Outline: as §1

[5] = target: T5, scanMAX Kinase assay panel (Homo sapiens, UniProt P45985); conditions: MEK4; 1 uM; read-out: Percent Control (%)
T5 construct: purchased DiscoverX
T5 sequence (P45985 1-399): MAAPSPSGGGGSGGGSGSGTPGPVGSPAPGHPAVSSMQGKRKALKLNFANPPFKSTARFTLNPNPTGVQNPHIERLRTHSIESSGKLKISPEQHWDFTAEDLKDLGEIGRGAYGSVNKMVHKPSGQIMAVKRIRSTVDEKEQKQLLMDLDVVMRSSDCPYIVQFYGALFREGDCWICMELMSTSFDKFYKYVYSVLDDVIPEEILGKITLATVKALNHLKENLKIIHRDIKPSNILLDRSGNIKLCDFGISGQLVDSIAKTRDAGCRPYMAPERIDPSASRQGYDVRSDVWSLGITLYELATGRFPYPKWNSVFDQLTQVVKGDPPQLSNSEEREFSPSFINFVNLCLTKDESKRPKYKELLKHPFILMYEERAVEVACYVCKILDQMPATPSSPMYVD
Outline: as §1

[6] = target: T6, scanMAX Kinase assay panel (Homo sapiens, UniProt O75914); conditions: PAK3; 1 uM; read-out: Percent Control (%)
T6 construct: purchased DiscoverX
T6 sequence (O75914 whole entry): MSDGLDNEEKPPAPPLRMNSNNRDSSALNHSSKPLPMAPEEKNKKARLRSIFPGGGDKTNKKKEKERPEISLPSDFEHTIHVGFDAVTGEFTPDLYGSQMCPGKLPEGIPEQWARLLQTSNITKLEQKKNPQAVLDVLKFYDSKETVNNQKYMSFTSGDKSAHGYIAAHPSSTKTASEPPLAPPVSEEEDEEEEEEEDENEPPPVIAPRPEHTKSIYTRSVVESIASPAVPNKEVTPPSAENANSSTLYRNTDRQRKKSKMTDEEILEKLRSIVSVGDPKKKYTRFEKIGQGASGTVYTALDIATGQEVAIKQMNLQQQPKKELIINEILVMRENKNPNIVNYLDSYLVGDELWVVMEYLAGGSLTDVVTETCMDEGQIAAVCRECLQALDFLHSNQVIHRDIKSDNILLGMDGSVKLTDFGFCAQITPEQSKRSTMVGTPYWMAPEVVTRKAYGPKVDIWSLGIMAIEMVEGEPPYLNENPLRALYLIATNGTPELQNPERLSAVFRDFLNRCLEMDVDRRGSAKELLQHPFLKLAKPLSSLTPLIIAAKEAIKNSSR
Outline: as §1

[7] = target: T7, scanMAX Kinase assay panel (Homo sapiens, UniProt Q96PY6); conditions: NEK1; 1 uM; read-out: Percent Control (%)
T7 construct: purchased DiscoverX
T7 sequence (Q96PY6 1-1258): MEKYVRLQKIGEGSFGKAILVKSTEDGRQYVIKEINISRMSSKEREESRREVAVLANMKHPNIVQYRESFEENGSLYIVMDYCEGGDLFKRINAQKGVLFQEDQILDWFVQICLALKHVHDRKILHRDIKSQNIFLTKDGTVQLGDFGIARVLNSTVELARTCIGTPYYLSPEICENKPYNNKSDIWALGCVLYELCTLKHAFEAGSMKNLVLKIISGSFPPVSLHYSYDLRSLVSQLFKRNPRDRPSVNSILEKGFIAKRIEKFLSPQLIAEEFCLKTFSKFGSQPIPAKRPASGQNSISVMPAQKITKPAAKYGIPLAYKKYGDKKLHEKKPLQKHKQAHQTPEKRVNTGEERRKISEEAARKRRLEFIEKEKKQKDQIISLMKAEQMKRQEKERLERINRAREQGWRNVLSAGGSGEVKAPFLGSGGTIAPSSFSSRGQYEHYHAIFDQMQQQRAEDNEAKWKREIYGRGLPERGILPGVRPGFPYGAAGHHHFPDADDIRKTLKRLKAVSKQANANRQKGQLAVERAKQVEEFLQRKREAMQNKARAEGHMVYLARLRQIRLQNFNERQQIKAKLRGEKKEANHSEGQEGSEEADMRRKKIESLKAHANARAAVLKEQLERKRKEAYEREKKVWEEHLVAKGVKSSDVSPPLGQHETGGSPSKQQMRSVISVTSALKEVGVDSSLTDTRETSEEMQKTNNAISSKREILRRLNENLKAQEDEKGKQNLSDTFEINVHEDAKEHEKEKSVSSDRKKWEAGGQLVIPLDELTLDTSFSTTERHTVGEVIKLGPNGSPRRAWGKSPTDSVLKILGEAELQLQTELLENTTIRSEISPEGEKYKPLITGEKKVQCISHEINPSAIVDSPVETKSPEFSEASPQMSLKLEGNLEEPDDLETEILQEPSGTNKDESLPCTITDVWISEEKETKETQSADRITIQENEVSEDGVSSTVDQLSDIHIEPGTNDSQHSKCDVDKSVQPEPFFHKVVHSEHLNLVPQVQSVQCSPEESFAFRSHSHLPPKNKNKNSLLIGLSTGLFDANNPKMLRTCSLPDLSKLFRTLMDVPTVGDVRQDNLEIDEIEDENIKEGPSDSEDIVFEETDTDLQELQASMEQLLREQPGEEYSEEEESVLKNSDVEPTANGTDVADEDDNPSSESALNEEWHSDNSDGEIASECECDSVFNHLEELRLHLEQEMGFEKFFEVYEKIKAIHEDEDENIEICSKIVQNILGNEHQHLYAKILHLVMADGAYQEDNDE
Outline: as §1

[8] = target: T8, scanMAX Kinase assay panel (Homo sapiens, UniProt Q96GD4); conditions: AURKB; 1 uM; read-out: Percent Control (%)
T8 construct: purchased DiscoverX
T8 sequence (Q96GD4 whole entry): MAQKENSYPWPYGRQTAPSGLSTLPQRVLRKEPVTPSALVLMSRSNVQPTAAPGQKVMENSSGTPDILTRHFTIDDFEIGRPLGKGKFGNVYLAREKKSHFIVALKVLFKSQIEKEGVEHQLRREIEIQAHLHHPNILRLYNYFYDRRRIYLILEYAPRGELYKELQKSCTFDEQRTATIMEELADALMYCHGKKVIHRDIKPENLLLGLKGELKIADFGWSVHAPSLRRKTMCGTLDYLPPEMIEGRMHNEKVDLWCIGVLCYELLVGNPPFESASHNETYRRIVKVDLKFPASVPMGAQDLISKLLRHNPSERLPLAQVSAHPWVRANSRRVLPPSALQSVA
Outline: as §1

SMILES | remaining binding at 1 µM [1] [%] | remaining binding at 1 µM [2] [%] | remaining binding at 1 µM [3] [%] | remaining binding at 1 µM [4] [%] | remaining binding at 1 µM [5] [%] | remaining binding at 1 µM [6] [%] | remaining binding at 1 µM [7] [%] | remaining binding at 1 µM [8] [%]
Cc1ccc(NC(=O)C2(C(=O)Nc3ccc(F)cc3)CC2)cc1C#Cc1cnc2c(Nc3cnn(C(C)C)c3)cccn12 [Example 78] | 94 | 84 | 100 | 100 | 97 | 83 | 100 | 34
Cc1cn(-c2cc(NC(=O)c3ccc(C)c(C#Cc4cnc5c(Nc6cnn(C)c6)cccn45)c3)cc(C(F)(F)F)c2)cn1 [Example 12, 4-methyl-N-(3-(4-methyl-1H-imidazol-1-yl)-5-(trifluoromethyl)phenyl)-3-((8-((1-methyl-1H-pyrazol-4-yl)amino)imidazo[1,2-a]pyridin-3-yl)ethynyl)benzamide] | 14 | 47 | 77 | 81 | 100 | 95 | 96 | 56
Cc1ccc(C(=O)Nc2ccc(CN3CCN(C)CC3)c(C(F)(F)F)c2)cc1C#Cc1cnc2c(Nc3cnn(C)c3)cccn12 [Example 1, 4-methyl-3-((8-((1-methyl-1H-pyrazol-4-yl)amino)imidazo[1,2-a]pyridin-3-yl)ethynyl)-N-(4-((4-methylpiperazin-1-yl)methyl)-3-(trifluoromethyl)phenyl)benzamide] | 1 | 0 | 32 | 23 | 98 | 85 | 52 | 3
